“Also recorded” adds a separate entry of the source.
Legend:
[1] = test system: VEGF induced angiogenesis; assay: In vivo Matrigel plug angiogenesis assay; parameters: species or system B57l/6 mice; settings: mice; for VEGF induced angiogenesis in Matrigel plugs (images, FIG. 1): plugs taken out on Day 7; for Efficacy in inhibition of VEGF induced angiogenesis by hemoglobin level (FIG. 2), compared with Sorafenib: hemoglobin by Drabkin's reagent kit, Day 7
Text: In Vivo Matrigel Plug Angiogenesis Assay
Matrigel plug is made from a gelatinous protein mixture secreted by Engelbreth-Holm-Swarm (EHS) mouse sarcoma cells (produced and marketed by Corning Life Sciences and BD Biosciences). Matrigel resembles the complex extracellular environment found in many tissues and is used by cell biologists as a substrate (basement membrane matrix) for culturing assay.
The test animals were 5 to 8-week-aged B57l/6 mice. The Matrigel was mixed with PBS at a ratio of 4:1 to obtain the Matrigel plug. The mice were administered with the Matrigel plugs containing 30 IU heparin and VEGF 150 ng/ml (500 ul/mouse), and then divided into four groups (4 mice in one group), treated with Beauvericin i.p. or orally (GYT-088 Group), Sorafenib (Sorafenib Group) as a positive control, VEGF alone (Vehicle), and without any treatment (Ctrl). After one day, the animals were administered with the sorafenib i.p. at a dosage of 30 mg/kg or Beauvericin i.p. at a dosage of 2.4 mg/kg (0.1c.c./mice/day), or were orally administered with the Beauvericin at a dosage of 24 mg/kg once per day for six days. On Day 7, the animals were sacrificed and the Matrigel plugs were taken out for observation of angiogenesis. The hemoglobin of each mouse was also measured by Drabkin's reagent kit.

[2] = Drug observed in the eyes after oral administration (FIG. 3); type: in vivo
[3] = test system: naturally-occurring diabetic macular edema in rhesus monkeys; assay: Retinal thickness by OCT in spontaneous DME rhesus monkeys; type: in vivo, Macaca mulatta (Rhesus Macaque); settings: for Macular Central Thickness, left eye / Macular Central Thickness, right eye / Fovea Thickness, left eye / Fovea Thickness, right eye: monkey #2003 (NPDR); for Macular Central Thickness, left eye: baseline 204; for Macular Central Thickness, right eye: baseline 210; for Fovea Thickness, left eye: baseline 257; for Fovea Thickness, right eye: baseline 260
Method: (§1) Evaluation of Efficacy of beauvericin at different doses for 60 days on improving naturally-occurring diabetic macular edema in rhesus monkeys, providing a basis for clinical trial dose design and safety study.
(§2) Macaca mulatta (Rhesus Macaque) are used in the evaluation.
Retinal Thickness by OCT. To Quantify Retinal Thickness Before and after Treatment.
Retinal thickness is evaluated by 2 methods using OCT: (1) at the fovea and 1.5 mm on either side of it (three point method), and (2) using a 52-point grid to determine the fraction of macula that had thicknesses in different thickness groupings (250-300, 301-350, 351-400 μm, etc.). This method was developed by the Primed team in collaboration with Prof. Dr. Timothy Kern, a renowned diabetic retinopathy expert from Case Western Reserve University. Refer to the ARVO 2018 Poster. Assessment of macular thickening in spontaneously diabetic rhesus monkeys.
Inclusion Criteria • (1) Female, age 13-18 years (equals to 40-60 years old in human adults), 6-7 kg; • (2) Diabetic duration: over 3 years; • (3) DME of single/both eyes; • (4) DME: the retinal thickness measured by Heidelberg Spectralis OCT in recent half year and diagnosed by FP/FFA with Kowa VX-20 Fundus Camera; • (5) CRT≥260 μm (Central Foveal Thickness) and/or Average Thickness of ETDRS regions≥319 μm. (Retinal Thickening is defined by Mean and SD of CRT and ETDRS thickness of normal monkeys). The retinal thickening is defined as thickness that exceeded the normal mean by 2 standard deviations. Nondiabetic monkey: Average thickness of the retina in nondiabetic animals was 192±11 μm at the fovea, and 307±15 and 328±13 measured at a distance of 1.5 mm from fovea on the temporal and nasal sides, respectively. This method was developed by the Primed team in collaboration with Prof. Dr. Timothy Kern, a renowned diabetic retinopathy expert from Case Western Reserve University. Refer to the ARVO 2018 Poster. Assessment of macular thickening in spontaneously diabetic rhesus monkeys; and • (6) with/without vessel leakage or non-perfusion area.
6 spontaneous DME rhesus monkeys (with medical record within one year) will be provided and 4 out of 6 monkeys will be enrolled in the Pre-study period (four weeks) for FA, FP, OCT and slit lamp examination as well as blood biochemistry before treatment. 4 Monkeys will be divided into two groups based on retinal thickness by OCT: • (1) Group 1, vehicle group, N=1; • (2) Group 2, test article group, N=3; (Route of administration: oral administration, once a day; Dosage: TBD).
Retinal thickness includes CST and ETDRS thickness. […]

[4] = test system: naturally-occurring diabetic macular edema in rhesus monkeys; assay: Fundus photography (FP) of NPDR related changes in spontaneous DME rhesus monkeys; type: in vivo, Macaca mulatta (Rhesus Macaque)
Text: as §1, §2
Secondary Endpoints and Safety Parameters: • (1) Fundus photography (FP). To detect changes of hemorrhage, exudate or vessel lesion before and after treatment; and • (2) Drug effect on metabolism and lipid profiles, liver and kidney function.
Non-human primates (NHPs) are extremely similar to humans in physiological function and structure of eyes. […]
Inclusion Criteria • (1) Female, age 13-18 years (equals to 40-60 years old in human adults), 6-7 kg; • (2) Diabetic duration: over 3 years; • (3) DME of single/both eyes; • (4) DME: the retinal thickness measured by Heidelberg Spectralis OCT in recent half year and diagnosed by FP/FFA with Kowa VX-20 Fundus Camera; • (5) CRT≥260 μm (Central Foveal Thickness) and/or Average Thickness of ETDRS regions≥319 μm. […] Nondiabetic monkey: Average thickness of the retina in nondiabetic animals was 192±11 μm at the fovea, and 307±15 and 328±13 measured at a distance of 1.5 mm from fovea on the temporal and nasal sides, respectively. […]

[5] = monkey #2003, Day 14 versus baseline
[6] = monkey #2003, Day 56 versus baseline

In the case of CNC(=O)c1cc(Oc2ccc(NC(=O)Nc3ccc(Cl)c(C(F)(F)F)c3)cc2)ccn1 [Sorafenib, reference compound], the “VEGF induced angiogenesis in Matrigel plugs (images, FIG. 1)” value ([1]; Sorafenib i.p. 30 mg/kg, positive control) is reported as “inhibited”.

For CC(C)[C@H]1OC(=O)[C@H](Cc2ccccc2)N(C)C(=O)[C@@H](C(C)C)OC(=O)[C@H](Cc2ccccc2)N(C)C(=O)[C@@H](C(C)C)OC(=O)[C@H](Cc2ccccc2)N(C)C1=O [GYT-088, beauvericin], the “Crossing of blood-brain barrier (BBB) and blood-retinal barrier (BRB) into extravascular space of retina and vitreous body” value [2] was “can be cross the blood-brain barrier (BBB) and particularly the blood-retinal barrier (BRB)”, the “Presence of test drug in the eyes of the animal” value [2] was “observed in the eyes” and the “Macular Central Thickness, left eye” value ([3]; D14) was 197 μm. For the same compound, the “Macular Central Thickness, right eye” value ([3]; D14) was 202 μm, the “Fovea Thickness, left eye” value ([3]; D14) was 249 μm and the “Fovea Thickness, right eye” value ([3]; D14) was 251 μm. For the same compound, the “Macular Central Thickness, left eye” value ([3]; D28) was 199 μm, the “Macular Central Thickness, right eye” value ([3]; D28) was 206 μm and the “Fovea Thickness, left eye” value ([3]; D28) was 253 μm. For the same compound, the “Fovea Thickness, right eye” value ([3]; D28) was 255 μm, the “Macular Central Thickness, left eye” value ([3]; D56 (Double dosing)) was 200 μm and the “Macular Central Thickness, right eye” value ([3]; D56 (Double dosing)) was 202 μm. The “Fovea Thickness, left eye” value ([3]; D56 (Double dosing)) was 254 μm, the “Fovea Thickness, right eye” value ([3]; D56 (Double dosing)) was 255 μm and the “Reduction of central macular thickness (CMT), left eye” value [3, 5] was 7 μm. The “Reduction of central macular thickness (CMT), right eye” value [3, 5] was 8 μm, the “Reduction of fovea thickness, left eye” value [3, 5] was 8 μm and the “Reduction of fovea thickness, right eye” value [3, 5] was 9 μm. For the same compound, the “Reduction of central macular thickness, left eye” value [3, 6] was 6 μm, the “Reduction of central macular thickness, right eye” value [3, 6] was 8 μm and the “Reduction of macular thickness, left eye” value [3, 6] was 3 μm. For the same compound, the “Reduction of macular thickness, right eye” value [3, 6] was 5 μm, the “Efficacy in Diabetic Macular Edema (conclusion)” value ([3]; rhesus monkeys, oral, once a day) was “provided an efficacy in Diabetic Macular Edema” and the “NPDR related changes, FP” value ([4]; monkey #2003, D28, oral, once a day, baseline: hemorrhages) was “improved”. For the same compound, the “NPDR changes before and after dosing by FP” value ([4]; other animals of GYT-088 group (not #2003), any time points) was “No significant changes”, the “VEGF induced angiogenesis in Matrigel plugs (images, FIG. 1)” value ([1]; Beauvericin i.p. 2.4 mg/kg once per day for six days) was “inhibited” and the “Efficacy in inhibition of VEGF induced angiogenesis by hemoglobin level (FIG. 2), compared with Sorafenib” value ([1]; listed as Beauvericin) was “higher efficacy”. For the same compound, the “Efficacy in inhibition of VEGF induced angiogenesis by hemoglobin level (FIG. 2), compared with Sorafenib” value ([1]; listed as beauvericin) was “higher efficacy; also recorded: even better than Sorafenib”.

Reference: patent US11033603B2, “Method for treating ocular diseases” (priority 2019, dated 2021)
